The subject of data set [1] is Hct116. As to the kind of experiment: XTT assay, anti-proliferative effect. The conditions noted are these: Homo sapiens, HCT-116; Hct116 cells, ~48 h incubation. In kind it is cell-based. The procedure:
The principle of this test is based on the intracellular reduction of the tetrazolium dye XTT (sodium 3′-[1-(phenylaminocarbonyl)-3,4-tetrazolium]-bis(4-methoxy-6-nitro)benzene sulfonic acid, Sigma) to a formazan dye by mitochondrial dehydrogenases. The dye is only formed by metabolically active cells and its photometrically measurable intensity is a quantitative indicator for the presence of living cells. The reduction of dye formation by incubation of the cells with substances serves as a parameter for the anti-proliferative effect.
The tumour cell lines (ATCC) were injected into 96-well microtitre plates in a defined cell number (1250 cells/well for Hct116) and then incubated overnight in an incubator at 37° C., 5% CO2 and 95% air humidity. The test substances were prepared as stock solutions (10 mM) in DMSO. To determine the EC50 values the potential inhibitor substances were added to the cells in half-logarithmically graded dilutions, resulting in final concentrations of 1.58 nM-50 μM. The cell plates were then incubated for ˜48 h in an incubator at 37° C., 5% CO2 and 95% air humidity.
For the detection reaction the substrate XTT was mixed with PMS (N-Methyl dibenzopyrazine methylsulfate, Sigma) and added to the cells so that a final concentration of 325 μg XTT/ml and 2.5 μg PMS/ml was obtained. It was then incubated for 3 h at 37° C., 95% air humidity. The formazan salt formed by the cellular dehydrogenases could then be quantified by adsorption at 490 nm.
The % inhibition value was evaluated by means of the following formula from the values for the optical densities measured in each case at 490 nm:
Eight determinations were made for each control and two for the substance samples. The 0% control contains no cells, the 100% control (proliferation control) contains no test substance. The EC50 values were determined using GraphPadPrism.
On the technique in general: Tetrazolium dyes change colour on reduction, which living cells bring about.

Data set [2] has as its target T1, Erk2.
T1 construct: partly as full-length kinases, partly as shortened fragments, but at least consisting of the functional kinase domains; purchased Upstate 14-173
As to the kind of experiment: Cell-free kinase assay (ALPHA technology), Erk2. Type of data set: biochemical. The conditions noted are these: at 10 μM ATP; recombinant human kinase.

For data set [3], the target named is T2, PI3Kalpha (Homo sapiens, UniProt P42336).
T2 construct: partly as full-length kinases, partly as shortened fragments, but at least consisting of the functional kinase domains; purchased Upstate 14-602
As to the kind of experiment: Cell-free kinase assay (ALPHA technology), PI3Kalpha. The conditions noted are these: at 100 μM ATP; recombinant human kinase. Type of data set: biochemical. The procedure:
The inhibitory effect of the compounds according to the invention was tested on various serine/threonine, tyrosine and lipid kinases in enzymatic assays. Recombinant human kinases such as, for example, Erk2, PI3Kalpha and others were used in this case, partly as full-length kinases, partly as shortened fragments, but at least consisting of the functional kinase domains. The commercial kinase proteins (Proqinase, Upstate) were used as recombinant fusion proteins with GST (glutathion-S-transferase) or His-Tag. Depending on the type of substrate, the various kinase reactions were quantified by means of suitable ALPHA™ beads (Perkin-Elmer).
The substance testing is described in detail hereinafter for the Erk assay. To determine the IC50 value, the potential inhibitor substances were investigated in 10 semi-logarithmically graded concentrations of 3.16 nM-100 μM.
b) PI3K-ALPHAs (e.g. PI3Kalpha): the test substance, 1 ng PI3Kalpha (#14-602, Upstate), 100 μM ATP and 20 μM PIP2 substrate (#64910, Cayman Chemicals) were incubated on a 384-well Optiplate (Perkin-Elmer) for 1 h in 50 mM Hepes, 50 mM NaCl, 5 mM MgCl2, 0.05% Chaps, 5 mM DTT at pH 7.4. The kinase reaction was then stopped by adding ALPHA bead mixes (10 μg/ml, #6760603/Perkin-Elmer) pre-incubated with 1 nM GST:Grp1 fusion protein (Upstate) and 15 nM biotinylated PIP3 (#10009531, Cayman Chemicals) in 50 mM Hepes, 50 mM NaCl, 50 mM EDTA and 0.1% BSA and left to stand overnight.
The fluorescence was detected the following morning in a Envision plate reader (Perkin-Elmer).
The %-inhibition values per substance concentration were calculated by means of the following formula from the raw data determined in the Envision plate reader:
Eight determinations were made for each control and two for the substance samples. The 0% control either contains no ATP or no substrate, the 100% control (fully active kinase) contains no test substance. The IC50 values were determined using GraphPadPrism.

Data on two compounds can be found in patent publication US8912189B2, “Pyridopyrazine derivatives and their use” (Aeterna Zentaris GmbH, priority 2011, dated 2014).

A word on the EC50: it is the concentration at which the effect is half-maximal. A higher EC50 goes with a need for much substance. In general, IC50 refers to the point on the concentration scale where inhibition reaches its midpoint. A word on the melting point: it is the temperature of the solid-liquid transition.

T1 sequence (P63085 2-358 limits assumed): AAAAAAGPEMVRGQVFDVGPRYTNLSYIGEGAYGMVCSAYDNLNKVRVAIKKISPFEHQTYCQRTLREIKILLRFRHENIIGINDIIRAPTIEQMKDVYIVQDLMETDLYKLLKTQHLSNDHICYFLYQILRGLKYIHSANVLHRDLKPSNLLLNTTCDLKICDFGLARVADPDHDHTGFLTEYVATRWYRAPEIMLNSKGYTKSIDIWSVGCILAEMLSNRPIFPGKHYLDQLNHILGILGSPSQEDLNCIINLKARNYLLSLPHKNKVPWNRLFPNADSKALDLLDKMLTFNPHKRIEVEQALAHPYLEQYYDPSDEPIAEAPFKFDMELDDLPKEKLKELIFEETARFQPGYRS
T2 sequence (P42336 whole entry, the tested form may be a part): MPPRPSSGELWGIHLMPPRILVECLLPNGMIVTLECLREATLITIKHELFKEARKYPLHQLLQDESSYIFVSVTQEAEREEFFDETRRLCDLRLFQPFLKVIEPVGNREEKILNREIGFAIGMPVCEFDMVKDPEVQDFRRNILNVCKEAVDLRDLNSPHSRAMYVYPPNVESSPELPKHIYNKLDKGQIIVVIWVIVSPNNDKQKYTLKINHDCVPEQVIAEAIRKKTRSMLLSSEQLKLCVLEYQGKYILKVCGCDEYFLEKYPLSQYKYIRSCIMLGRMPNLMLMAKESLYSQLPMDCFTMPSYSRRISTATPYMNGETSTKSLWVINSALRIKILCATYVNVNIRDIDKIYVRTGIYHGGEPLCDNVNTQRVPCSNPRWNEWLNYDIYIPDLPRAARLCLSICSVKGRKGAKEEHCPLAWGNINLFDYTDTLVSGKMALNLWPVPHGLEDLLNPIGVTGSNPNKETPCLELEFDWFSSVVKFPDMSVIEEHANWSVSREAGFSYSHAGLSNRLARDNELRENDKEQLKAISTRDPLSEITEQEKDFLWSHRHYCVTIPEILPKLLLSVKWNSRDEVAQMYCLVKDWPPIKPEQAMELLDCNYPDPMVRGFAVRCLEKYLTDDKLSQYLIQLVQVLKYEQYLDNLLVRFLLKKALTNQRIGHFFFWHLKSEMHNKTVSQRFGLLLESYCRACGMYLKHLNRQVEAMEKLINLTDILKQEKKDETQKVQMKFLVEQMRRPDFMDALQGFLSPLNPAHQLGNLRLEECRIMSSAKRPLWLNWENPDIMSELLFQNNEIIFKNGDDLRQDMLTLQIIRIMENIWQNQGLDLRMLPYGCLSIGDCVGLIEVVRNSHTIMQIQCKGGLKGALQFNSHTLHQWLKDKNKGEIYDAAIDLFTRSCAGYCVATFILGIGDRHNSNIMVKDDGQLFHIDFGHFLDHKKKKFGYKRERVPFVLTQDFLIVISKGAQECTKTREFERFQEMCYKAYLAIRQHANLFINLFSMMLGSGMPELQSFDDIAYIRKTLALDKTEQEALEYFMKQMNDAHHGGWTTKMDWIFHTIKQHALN
T2 sequence (P27986 whole entry partner, the tested form may be a part): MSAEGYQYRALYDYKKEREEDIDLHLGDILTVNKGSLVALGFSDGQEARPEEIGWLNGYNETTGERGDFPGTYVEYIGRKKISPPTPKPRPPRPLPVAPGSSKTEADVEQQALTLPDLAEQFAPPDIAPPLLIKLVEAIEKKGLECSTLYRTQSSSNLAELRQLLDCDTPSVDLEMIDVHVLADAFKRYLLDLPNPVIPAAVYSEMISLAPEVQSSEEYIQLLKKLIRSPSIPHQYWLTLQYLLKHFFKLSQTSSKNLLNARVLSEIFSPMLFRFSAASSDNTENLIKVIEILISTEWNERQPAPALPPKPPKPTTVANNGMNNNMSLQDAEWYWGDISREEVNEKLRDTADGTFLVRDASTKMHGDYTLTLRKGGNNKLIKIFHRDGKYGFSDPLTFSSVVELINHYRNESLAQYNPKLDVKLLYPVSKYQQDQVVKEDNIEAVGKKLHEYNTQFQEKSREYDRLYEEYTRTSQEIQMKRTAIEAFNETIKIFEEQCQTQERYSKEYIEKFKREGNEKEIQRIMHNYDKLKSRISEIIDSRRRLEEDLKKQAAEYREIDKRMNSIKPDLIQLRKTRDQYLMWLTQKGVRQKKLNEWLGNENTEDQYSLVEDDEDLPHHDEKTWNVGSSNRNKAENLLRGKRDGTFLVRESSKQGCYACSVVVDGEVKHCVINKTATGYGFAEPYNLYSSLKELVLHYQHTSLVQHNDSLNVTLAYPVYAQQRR

As for `CCNC(=S)Nc1ccc2ncc(-c3cnn(Cc4ccccc4)c3)nc2n1` [Compound 45, 1-[3-(1-Benzyl-1H-pyrazol-4-yl)-pyrido[2,3-b]pyrazin-6-yl]-3-ethyl-thiourea], the melting point was 252 °C. In data set [1], the EC50 came out at 1.95 µM. Besides, in data set [2], the IC50 came to 0.272 µM. In data set [3], the 50% inhibitory concentration (IC50) was found to be 0.249 µM.
In turn, `CCNC(=S)Nc1ccc2ncc(-c3cnn(Cc4ccc(O)cc4)c3)nc2n1` [Compound 210, 1-Ethyl-3-{3-[1-(4-hydroxy-benzyl)-1H-pyrazol-4-yl]-pyrido[2,3-b]pyrazin-6-yl}-thiourea] showed a melting point of 257 °C. Besides, the 50% effective concentration (EC50) in data set [1] was determined as 1.7 µM. Moreover, the IC50 in data set [2] amounted to 0.225 µM. Moreover, the IC50 in data set [3] was 0.208 µM.
